This is an account of results in US8507756B2, “Plant protection” (Plant Bioscience Limited, priority 2007, dated 2013).

In series [1] the test system is Spodoptera exempta. The series is described as follows: JA seed treatment, wheat plants challenged with Spodoptera exempta caterpillars. The class given is in vivo. The settings on record: wheat cv. Einstein; seed treatment 1.5 mM JA; challenged 7 weeks after seed treatment; 3 days feeding; p<0.01. As for the experimental part: (§1) Tomato, pepper, maize and wheat seeds were treated with 3 mM JA or 1.5 mM JA solutions or with 3 mM methyl jasmonate (MeJA) or with deionised water containing 42.8 mM ethanol (control) by full submersion of up to 40 seeds in a Petri dish of solution wrapped in foil for a period of 24 hours at 4° C. in a fridge. A temperature of 4° C. was used both to prevent degradation of the jasmonic acid solutions and to prevent germination of the seeds.
(§2) Wheat and maize seeds were sown in peat-based compost and grown in unheated glass houses with supplementary lighting. (600 W SON-T lamps, for 16 hours per day) in the autumn.
(§3) Tomato plants were then challenged with Tetranychus urticae (two-spotted spider mite) which were allowed to feed for 9 days, Manduca sexta (tobacco hornworm) caterpillars which were allowed to feed for 4 days or Myzus persicae (aphid), which were allowed to feed for 10 or 12 days. […]
(§4) The effect of Manduca sexta or Spodoptera exempta on plants was determined by measurement of the leaf area eaten, measured using a leaf area meter.
Seeds of the commercial wheat variety (cv. Einstein) were treated with 1.5 mM jasmonic acid (JA), and plants grown in the glasshouse (as described under Example 1). […] Caterpillars were allowed to feed on the plants for 3 days and the area of grazed leaves was then measured. […]

Series [2] deals with tomato (cv. Carousel). The series can be described thus: Long term growth and yield study after JA seed treatment, tomato. The class given is in vivo, Solanum lycopersicum. An excerpt: (§5) Data are means of 8 replicate plants+/−standard error of the mean, and the line is a fitted growth response.
Series [3] relates to Myzus persicae. The series can be described thus: JA seed treatment, sweet pepper plants challenged with aphids. The class given is in vivo. Particulars: sweet pepper cv Biscayne, seed treatment 1.5 mM JA. As for the experimental part: Tomato, pepper, maize and wheat seeds were treated with 3 mM JA or 1.5 mM JA solutions or with 3 mM methyl jasmonate (MeJA) or with deionised water containing 42.8 mM ethanol (control) by full submersion of up to 40 seeds in a Petri dish of solution wrapped in foil for a period of 24 hours at 4° C. in a fridge. A temperature of 4° C. was used both to prevent degradation of the jasmonic acid solutions and to prevent germination of the seeds. Pepper seeds were sown in peat-based compost and grown in unheated glass houses under ambient conditions in the summer. Tomato plants were then challenged with Tetranychus urticae (two-spotted spider mite) which were allowed to feed for 9 days, Manduca sexta (tobacco hornworm) caterpillars which were allowed to feed for 4 days or Myzus persicae (aphid), which were allowed to feed for 10 or 12 days. In each case these organisms were restricted to the plant on which they had originally been placed. Pepper plants were challenged with Myzus persicae (aphid), which were allowed to feed for 2 weeks. […] The effect of Myzus persicae on plants was determined by counting the aphid population on each plant under a dissecting microscope at ×10 magnification. […] Aphids were allowed to feed on the plants for two weeks and the growth of the aphid population over this period was then measured. […]

Series [4] is described as follows: Dissolution of JA in water when preparing the solution. The class given is physicochemical. The settings on record: 250 mg JA; ethanol needed first. As for the experimental part:
6. 1 ml of ethanol was added to the vial of JA using a 1000 μl Gilson pipette, the lid of the vial replaced and the vial shaken to dissolve the JA.

For series [5], the system named is cucumber. The series can be described thus: Long term growth and yield study after JA seed treatment, cucumber. The class given is in vivo. The settings on record: seed treatment 1.5 or 3.0 mM JA, weekly harvests.
From the text: as §5

For series [6], the system named is Tetranychus urticae (two-spotted spider mite). The series is described as follows: JA seed treatment, tomato plants challenged with two-spotted spider mite. The class given is in vivo. Particulars: tomato cv. Carousel. As to the method: as §1
The seeds were then removed from the treatment solution and washed in 1 liter of deionised water for 5 minutes to remove the JA or MeJA coating the outside of the seeds.
Tomato seeds were sown in rockwool blocks and grown on peat-based compost in glass houses at 12° C.-28° C. under artificial light on a 16 hour light and 8 hour dark cycle for 48, 56 or 70 days.
Tomato plants were then challenged with Tetranychus urticae (two-spotted spider mite) which were allowed to feed for 9 days, Manduca sexta (tobacco hornworm) caterpillars which were allowed to feed for 4 days or Myzus persicae (aphid), which were allowed to feed for 10 or 12 days. In each case these organisms were restricted to the plant on which they had originally been placed. Pepper plants were challenged with Myzus persicae (aphid), which were allowed to feed for 2 weeks. Maize and wheat plants were challenged with Spodoptera exempta caterpillars which were allowed to feed for 2 days (maize) or 3 days (wheat).
The effect of Tetranychus urticae on plants was measured by means of counting the number of live and dead mites on each plant and the number of mite eggs present using a dissecting microscope.
Seeds of a UK commercial F1 hybrid tomato variety (cv. Carousel) were treated with either 1.5 or 3.0 mM jasmonic acid (JA) and 42.8 mM ethanol in deionised H2O for a period of 24 hours at 4° C. in the dark. Those seeds were then removed from solution and washed in deionised H2O only to remove the JA coating the outside of the seed. Those seed were then germinated in a commercial manner using rockwool blocks and were grown on under glasshouse conditions appropriate to this crop. Plants were challenged with two-spotted spider mite (Tetranychus urticae) 7 weeks after treatment a common crop pest, acting here as a “model herbivore”.

For series [7], the system named is Spodoptera exempta. The series is described as follows: JA seed treatment, maize plants challenged with Spodoptera exempta caterpillars. The settings on record: maize cv. Earligold, seed treatment 1.5 mM JA, 2 days feeding. The class given is in vivo. As to the method:
as §1, §2, §3, §4
Seeds of maize cv. […] Caterpillars were allowed to feed on the plants for 2 days and the area of grazed leaves was then measured. […] When expressed as the area of leaf consumed per unit weight of caterpillars the reduction in plants grown from seed treated with JA was even more pronounced (40%, p<0.001, FIG. 9). […]

Setting [8] is: tomato cv. Carousel, JA seed treatment vs control, 8 replicate plants.

For the compound `CC/C=C\C[C@H]1C(=O)CC[C@@H]1CC(=O)O` [JA, jasmonic acid], in series [1], the “Leaf area consumed by caterpillars, lower than controls” value turned out to be 60%. In series [2] (setting [8]), the “Fruit dry weight at each weekly harvest” value is given as “no significant effects”, the “Number of fruit at each weekly harvest” value is recorded as “no significant effects” and the “Plant height at each weekly harvest” value is “no significant effects”. Besides, in series [2] (tomato, seed treatment 1.5 or 3.0 mM JA, weekly harvests), the “Vegetative or reproductive growth, or commercial yield” value is recorded as “no significant effect”. The “Rate of aphid population growth compared with controls” value in series [3] (challenged 8 weeks after seed treatment, 2 weeks feeding) is “significant (p<0.001) reduction”. Besides, the “Aphid population growth rate from fitted growth curves” value in series [3] (control 0.19+/-0.011) was 0.11+/−0.016. The Solubility in water entry in series [4] is listed as “will not dissolve in water directly”. In series [5], the “Vegetative or reproductive growth, or commercial yield” value is “no significant effect”. The “Observed resistance induced against spider mite” value in series [6] (8 weeks after application of the JA to the seeds) is given as “significant”. For the same compound, the “Visual damage caused by red spider mite attack (pale stippling of the leaf surface)” value in series [6] (seed treatment 3.0 mM JA vs control, challenged 7 weeks after treatment) was “substantially reduced”. In addition, the “Reproductive rate of the mite measured by egg production (eggs per adult female) compared with control plants” value in series [6] (seed treatment 1.5 or 3.0 mM JA, 10 replicates) is reported as “significant reduction”. Also, in series [6] (seed treatment 1.5 or 3.0 mM JA, mites fed 9 days, 10 replicates), the “Population of two-spotted spider mite on the leaves (number of live mites) compared with control plants” value was “significant reduction”. Moreover, in series [7] (p<0.001), the “Area of leaf consumed per unit weight of caterpillars, reduction vs controls” value is 40%. Besides, the “Leaf area consumed by caterpillars, lower than controls” value in series [7] (tassel stage approx. 10 weeks after seed treatment, p<0.05) is on record as 38%.
